Where a name gives a salt, the structure may show the parent alone. Read-outs that look alike come from different tables or passages of the source.
Tests used:
[1] = tested on: B16 Melanoma; assay: In vivo efficacy, 3B131 intraperitoneally implanted B16 Melanoma; design: species or system mouse; settings: i.p., 1-9 days, daily
[2] = tested on: promyelocytic cell line HL-60; assay: Inhibition of cell proliferation, tritiated thymidine incorporation, cells (ii); format: cell-based; settings: for inhibition at 500 µM: Homo sapiens
Procedure: (§1) The compound of the invention prepared in Example I gave the results indicated in paragraphs (a), (b) and (c), below, when tested on: (i) leukemic cells from six myeloid leukemic patients, and (ii) promyelocytic cell line HL-60.
(b) Inhibition of cell proliferation. This was evaluated by inhibition of tritiated thymidine incorporation. The results in the following table are self-explanatory:
In a further experiment, cells (ii) were incubated with the compound of Example I or with sodium butyrate. After a period of time as specified in the following table, the agents were removed by washing the cells, and thymidine incorporation was measured 15 hours after the end of incubation.

[3] = tested on: leukemic cells from six myeloid leukemic patients and promyelocytic cell line HL-60 (which one is not stated); assay: Induction of cytodifferentiation, reduction of nitro blue tetrazolium (NBT); format: cell-based; settings: 0.15 mM
Procedure: (c) Induction of cytodifferentiation. This was evaluated by reduction of nitro blue tetrazolium (NBT), which is indicative of functional maturity of leucocytes.

[4] = tested on: leukemic cells from six myeloid leukemic patients; assay: Cytotoxicity, viability of cells 60 hours after exposure, Trypan Blue exclusion, cells (i); format: cell-based; settings: Homo sapiens, read-out: Concentration which resulted in 50% inhibition (LD50), viability
Procedure: as §1
(§2) (a) Cytotoxicity. The viability of the cells 60 hours after exposure was determined by Trypan Blue exclusion.

[5] = tested on: promyelocytic cell line HL-60; assay: Cytotoxicity, viability of cells 60 hours after exposure, Trypan Blue exclusion, cells (ii); format: cell-based; settings: Homo sapiens, read-out: Concentration which resulted in 50% inhibition (LD50), viability
Procedure: as §1, §2

[6] = tested on: leukemic cells from six myeloid leukemic patients; assay: Inhibition of cell proliferation, tritiated thymidine incorporation, cells (i); format: cell-based, human
Procedure: as §1
(b) Inhibition of cell proliferation. This was evaluated by inhibition of tritiated thymidine incorporation. The results in the following table are self-explanatory: […]

[7] = tested on: leukemic cells isolated from myelogenous leukemic patients
[8] = tested on: acute myelogenous leukemia; settings: human, in vivo
[9] = tested on: variety of tumor cells; settings: induction of morphological and biochemical changes; cited from earlier work
[10] = tested on: neuroblastoma; settings: doses of up to 10 g./day; cited from earlier work
[11] = tested on: refractory acute myelogenous leukemia; settings: 0.5 g./kg./day; cited from earlier work
[12] = cited from earlier work
[13] = in vivo; cited from earlier work
[14] = cited from earlier work; remark: listed apart in the source
[15] = tested on: colony forming units, granulocytes and macrophages (CFU-GM); settings: CFU-GM in soft agar; normal bone marrow and peripheral blood of leukemic patients; unpublished work; cited from earlier work
[16] = tested on: Lewis Lung Carcinoma; assay: In vivo efficacy, 3LL32 subcutaneously implanted Lewis Lung Carcinoma; design: species or system mouse; settings: i.p.
Procedure: (§3) Moreover, the in vivo efficacy of the compound of the invention prepared in Example I was tested according to protocols adopted from the "Developmental Therapeutics Program, Division of Cancer Treatment, National Cancer Institute", NIH Publication 84-2635, using the following animal models: (1) 3B131 Intraperitoneally (i.p.) implanted B16 Melanoma; (2) 3B132 Subcutaneously (s.c.) implanted B16 Melanoma: and (3) 3LL32 Subcutaneously (s.c.) implanted Lewis Lung Carcinoma. Results according to the following table were obtained.

[17] = Activity of hydrolysis product under conditions in which the parent compound was active; settings: conditions in which the parent compound (Example I) was active
From the text: It is postulated that the butyrate esters provided by the invention undergo intracellular hydrolysis to butyric acid; the residual fragments of the hydrolysis would be non-toxic. […] An alternative metabolic route may involve (where appropriate) the oxidation of butyrates to hydroxy-butyrates and/or oxo-butyrates.

[18] = tested on: human lymphocytes; assay: Colony stimulating factors (CSF) production by human lymphocytes, CFU-GM from BALB/c mouse bone marrow; format: cell-based; settings: for CSF production, # CFU-GM / CSF production, %: 72 hours incubation; for CSF production, %: PHA = 100
Procedure: (§4) CSF activity was assayed by the ability of the supernatants from these cultures to support development on semisolid agar of CFU-GM (colony forming units--granulocytes and macrophages) from bone marrow cells of BALB/c mice.

[19] = tested on: mouse spleen cells; assay: Colony stimulating factors (CSF) production by murine splenocytes, CFU-GM from BALB/c mouse bone marrow; format: cell-based; settings: for CSF production, %: ConA = 100
Procedure: as §4

[20] = tested on: B16 Melanoma; assay: In vivo efficacy, 3B132 subcutaneously implanted B16 Melanoma; settings: 125 mg./kg./mouse, i.p.; 1-6 days, daily
Procedure: as §3

[21] = Therapeutic index (LD50/ED50), standard procedures; settings: in vivo
[22] = Experiment 1, 20 μM, 24 hours incubation

SMILES: N.N.[Cl][Pt][Cl] [cisplatin, reference compound]
- ILS (increased life span compared to untreated animals) ([1]; 1.5 mg./kg./mouse): 164%

SMILES: CCCC(=O)[O-].[Na+] [sodium butyrate, reference compound]
- inhibition at 500 µM ([2]; HL-60, read-out: % inhibition of tritiated thymidine incorporation, 0.5 mM, incubation 0.5 hours, washed, measured 15 hours after end of incubation): 0%
- inhibition at 500 µM ([2]; HL-60, read-out: % inhibition of tritiated thymidine incorporation, 0.5 mM, incubation 3.0 hours, washed, measured 15 hours after end of incubation): 0%
- inhibition at 500 µM ([2]; HL-60, read-out: % inhibition of tritiated thymidine incorporation, 0.5 mM, incubation 16.0 hours, washed, measured 15 hours after end of incubation): 0%
- inhibition at 500 µM ([2]; HL-60, read-out: % inhibition of tritiated thymidine incorporation, 0.5 mM, incubation 24.0 hours, washed, measured 15 hours after end of incubation): 22%
- inhibition at 500 µM ([2]; HL-60, read-out: % inhibition of tritiated thymidine incorporation, 0.5 mM, incubation 48.0 hours, washed, measured 15 hours after end of incubation): 50%
- inhibition at 500 µM ([2]; HL-60, read-out: % inhibition of tritiated thymidine incorporation, 0.5 mM, incubation 62.0 hours, washed, measured 15 hours after end of incubation): 94%
- NBT reduction (% of positive cells) ([3]; incubation 24 hours): 11 % of positive cells
- NBT reduction (% of positive cells) ([3]; incubation 48 hours): 29 % of positive cells
- NBT reduction (% of positive cells) ([3]; incubation 72 hours): 48 % of positive cells
- NBT reduction (% of positive cells) ([3]; incubation 96 hours): 66 % of positive cells

SMILES: CCCC(=O)O [butyric acid/salts, butyric acid]
- IC50 [4]: 1000 µM
- IC50 [5]: 400 µM
- inhibition of tritiated thymidine incorporation (in words) ([6]; 24 hours, up to 2 mM): no inhibition
- inhibition of tritiated thymidine incorporation (in words) ([2]; cells (ii), 24 hours, up to 1 mM): no inhibition
- cytotoxic and cytodifferentiating potency (in words) [7]: the most potent cytotoxic and cytodifferentiating agent
- adverse reaction (in words) [8]: no adverse reaction
- anti-tumor activity (in words) [9]: anti-tumor activity
- toxicity (in words) [10]: no clinically detectable toxicity
- remission (in words) [11]: partial and temporary remission
- toxic effects (in words) [11]: without detectable toxic effects
- induction period ([12]; in vitro): 48 h
- induction period ([12]; in vivo): 96 to 120 h
- clearance (in words) [13]: high clearance
- metabolization (in words) [13]: rapid metabolization
- toxicity (in words) ([14]; high dosages): no toxicity
- fluid overload and alkalosis (in words) ([14]; human, in vivo): fluid overload and mild alkalosis may occur
- selectivity (in words) [15]: selectivity of butyric acid/salts was demonstrated

SMILES: O=P1(N(CCCl)CCCl)NCCCO1 (stereo not shown) [cytoxan, reference compound]
- ILS (increased life span compared to untreated animals) ([16]; 100 mg./kg./mouse, day 1 only): 152%

SMILES: CC(C)(C)C(=O)O [pivalic acid]
- activity (in words) [17]: shows no activity

SMILES: CCCC(=O)OCOC(=O)C(C)(C)C [Example I, Pivaloyloxymethyl butyrate]
- IC50 [4]: 150 µM
- IC50 [5]: 100 µM
- inhibition at 100 µM ([6]; Homo sapiens, 0.1 mM, 15 hrs. exposure): 88%
- inhibition at 200 µM ([6]; Homo sapiens, 0.2 mM, 15 hrs. exposure): 99%
- inhibition at 500 µM ([2]; HL-60, 0.5 mM, incubation 0.5 hours, washed, measured 15 hours after end of incubation, read-out: % inhibition of tritiated thymidine incorporation): 52%
- inhibition at 500 µM ([2]; HL-60, 0.5 mM, incubation 3.0 hours, washed, measured 15 hours after end of incubation, read-out: % inhibition of tritiated thymidine incorporation): 92%
- inhibition at 500 µM ([2]; HL-60, 0.5 mM, incubation 16.0 hours, washed, measured 15 hours after end of incubation, read-out: % inhibition of tritiated thymidine incorporation): 99%
- inhibition at 500 µM ([2]; HL-60, 0.5 mM, incubation 24.0 hours, washed, measured 15 hours after end of incubation, read-out: % inhibition of tritiated thymidine incorporation): 99%
- inhibition at 500 µM ([2]; HL-60, 0.5 mM, incubation 48.0 hours, washed, measured 15 hours after end of incubation, read-out: % inhibition of tritiated thymidine incorporation): 99%
- inhibition at 500 µM ([2]; HL-60, 0.5 mM, incubation 62.0 hours, washed, measured 15 hours after end of incubation, read-out: % inhibition of tritiated thymidine incorporation): 99%
- inhibition at 500 µM ([2]; HL-60, 0.5 h, cells (ii), 0.5 mM, 0.5 hr. exposure, read-out: % inhibition of tritiated thymidine incorporation): 52%
- inhibition at 500 µM ([2]; HL-60, 15 h, cells (ii), 0.5 mM, 15 hrs. exposure, read-out: % inhibition of tritiated thymidine incorporation): 99%
- NBT reduction (% of positive cells) ([3]; incubation 24 hours): 24 % of positive cells
- NBT reduction (% of positive cells) ([3]; incubation 48 hours): 49 % of positive cells
- NBT reduction (% of positive cells) ([3]; incubation 72 hours): 66 % of positive cells
- NBT reduction (% of positive cells) ([3]; incubation 96 hours): 77 % of positive cells
- CSF production, # CFU-GM ([18]; Experiment 1, 20 μM): 10 # CFU-GM
- CSF production, % ([18]; Experiment 1, 20 μM): 33%
- CSF production, # CFU-GM ([18]; Experiment 1, 50 μM): 3 # CFU-GM
- CSF production, % ([18]; Experiment 1, 50 μM): 10%
- CSF production, # CFU-GM ([18]; Experiment 2, 20 μM): 43 # CFU-GM
- CSF production, % ([18]; Experiment 2, 20 μM): 105%
- CSF production, # CFU-GM ([18]; Experiment 2, 50 μM): 16 # CFU-GM
- CSF production, % ([18]; Experiment 2, 50 μM): 39%
- CSF production (in words) ([18]; human lymphocytes): stimulates CSF production
- CSF production, # CFU-GM [19, 22]: 11 # CFU-GM
- CSF production, % [19, 22]: 10%
- CSF production, % ([19]; Experiment 1, 50 μM, 24 hours incubation): 0%
- CSF production (in words) ([19]; murine lymphocytes): stimulates CSF production
- ILS (increased life span compared to untreated animals) ([1]; 250 mg./kg./mouse): 154%
- ILS (increased life span compared to untreated animals) [20]: 150%
- ILS (increased life span compared to untreated animals) ([16]; 125 mg./kg./mouse, 1-6 days, daily): 152%
- ILS (increased life span compared to untreated animals) ([16]; 125 mg./kg./mouse, 1-18 days, every odd day): 186%
- selectivity ratio [21]: 15 to 20
